Laboratory results taken from patent US5708063A, “Photochromic compound” (Tokuyama Corporation, priority 1993, dated 1998).

Tests used:
Format in all cases: physicochemical
[1] = Fatigue life of photochromic PMMA cast film with ultraviolet stabilizer, xenon fadeometer (Examples 11-14)
Method: One hundred parts by weight of benzene, 10 parts by weight of poly(methyl methacrylate), 0.2 part […] The solution was cast on a slide glass (11.2×3.7 cm) to form a cast film having a thickness of 0.1 mm.
The fatigue life of photochromic film was measured as in Example 9 by a xenon long-life fadeometer (FAL-25AX-HC made by Suga Testing Instrument Co., Ltd.).
Example 11 was repeated except that the fulgimide compound obtained in Example 2 was used instead of fulgimide compound used in Example 11.
Example 11 was repeated except that the fulgimide or fulgide compounds shown in Table 28 were used instead of the fulgimide compounds in Example 11, and Cyasorb UV1084 was used as the ultraviolet stabilizer.

[2] = Durability of poly(allyl diglycol carbonate) lens impregnated with the compound in silicone oil, as in Example 9 (Example 10); design: Initial color density: unit not given here; settings: silicone oil impregnation; for Initial color density: 1.0×10^-4 mole/g; for T1/2: xenon fadeometer
Method: (§1) T1/2 is defined as the time required for the color density to decrease to half of its initial value when the film is exposed to the fadeometer.
The solution was impregnated in the surface of a lens composed of poly(allyl diglycol carbonate) at 200° C. for 1 hour. The concentration of the solution was adjusted to 1.0×10^-4 mole/g.

[3] = Photochromic PMMA cast film: initial coloration density, maximum absorption wavelength and fatigue life in xenon fadeometer (Example 9); settings: PMMA cast film 0.1 mm; for λmax / Initial color density: xenon light; for Initial color density / T1/2: no stabilizer; for T1/2: time for color density to fall to half of initial value, xenon fadeometer;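 as to Initial color density: initial color density is an absorbance value so the % unit is wrong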
Source text: The thickness of the cast film was adjusted to 0.1 mm.
as §1

[4] = Fatigue life of fulgide/fulgimide and chromene compound in polymerized methacrylate plate (Example 15); settings: 0.05 part
Method: (§2) […] The mixed solution was injected into a mold which was made of a glass plate and a gasket formed of an ethylene-vinyl acetate copolymer, and was heated to a temperature of 35° to 90° C. in an air oven over a period of 20 hours for polymerization. After the polymerization was over, the polymer was withdrawn from the glass plate of the mold.
(§3) The resulting polymerized plate was irradiated with sunlight for 10 minutes. On this occasion, a color tone of said plate was visually observed. In this polymerized plate, the fulgide or fulgimide compound and the chromene compound were measured for fatigue life in the same manner as in Example 9. Further, a color tone of the polymerized plate was visually observed in T1/2 (hrs.) of the fulgide or fulgimide compound.

[5] = Visual color tone of polymerized plate under sunlight (Example 15); settings: 0.05 part
Method: as §2, §3

[6] = PMMA film, UV stabilizer Chimassorb 944, 0.2 part
[7] = PMMA film, UV stabilizer Cyasorb 3346, 0.2 part
[8] = PMMA film, UV stabilizer Cyasorb UV1084, 0.2 part
[9] = PMMA film, UV stabilizer Irgastab 2002, 0.2 part
[10] = PMMA film, UV stabilizer Rylex NBC, 0.2 part
[11] = PMMA film, UV stabilizer Spinuvex A-36, 0.2 part
[12] = PMMA film, UV stabilizer Tinuvin 144, 0.2 part
[13] = PMMA film, UV stabilizer Tinuvin 622, 0.2 part
[14] = PMMA film, UV stabilizer Tinuvin 765, 0.2 part
[15] = PMMA film, UV stabilizer UV Chek AM101, 0.2 part
[16] = PMMA film, UV stabilizer UV Chek AM105, 0.2 part

SMILES	T1/2 [1, 8]	λmax [2]	Initial color density [2]	T1/2 [2]	λmax [3]	Initial color density [3]	T1/2 [3]	also measured
COC(=O)CN1C(=O)C2=C(C3CC3)c3ccsc3C3(C4CCC3CC4)C2C1=O (stereo not drawn) [(1), 4-cyclopropyl-6,7-dihydrdo-N-methoxycarbonylmethylspirobenzo[5,6-b]thiophenedicarboxyimido-7,7'-bicyclo[2.2.1]heptane]	310 h	554 nm	0.78	82 h	549 nm	0.85%	77 h	T1/2 ([1]; Cyasorb UV1084, amount added 0.002, 1 part per 100 parts fulgimide): 220 h; T1/2 ([1]; Cyasorb UV1084, amount added 0.1, 50 parts per 100 parts fulgimide): 293 h; T1/2 ([1]; Cyasorb UV1084, amount added 0.8, 400 parts per 100 parts fulgimide): 330 h; T1/2 ([1]; Cyasorb UV1084, amount added 20, 10000 parts per 100 parts fulgimide): 367 h; T1/2 [1, 6]: 283 h; T1/2 [1, 7]: 336 h; T1/2 [1, 9]: 299 h; T1/2 [1, 10]: 323 h; T1/2 [1, 11]: 302 h; T1/2 [1, 12]: 310 h; T1/2 [1, 13]: 327 h; T1/2 [1, 14]: 325 h; T1/2 [1, 15]: 295 h; T1/2 [1, 16]: 272 h; T1/2 ([1]; Tinuvin 765, amount added 0.002, 1 part per 100 parts fulgimide): 213 h; T1/2 ([1]; Tinuvin 765, amount added 0.1, 50 parts per 100 parts fulgimide): 307 h; T1/2 ([1]; Tinuvin 765, amount added 0.8, 400 parts per 100 parts fulgimide): 340 h; T1/2 ([1]; Tinuvin 765, amount added 20, 10000 parts per 100 parts fulgimide): 375 h
N#CCN1C(=O)C2=C(C3CC3)c3ccsc3C3(C4CCC3CC4)C2C1=O (stereo not drawn) [(2), N-cyanomethyl-4-cyclopropyl-6,7-dihydridospirobenzo[5,6-b]thiophenedicarboxyimido-7,7'-bicyclo[2.2.1]heptane]	350 h	568 nm	0.71	91 h	563 nm	0.78%	89 h	T1/2 [1, 6]: 325 h; T1/2 [1, 7]: 385 h; T1/2 ([1]; PMMA film, UV stabilizer Cyasorb UV1084, 0.2 part, listed as Example 2): 355 h; T1/2 [1, 9]: 340 h; T1/2 [1, 10]: 369 h; T1/2 [1, 11]: 346 h; T1/2 [1, 12]: 355 h; T1/2 [1, 13]: 375 h; T1/2 [1, 14]: 373 h; T1/2 [1, 15]: 336 h; T1/2 [1, 16]: 308 h
O=C(CCCCN1C(=O)C2=C(C3CC3)c3ccsc3C3(C4CC5CC(C4)CC3C5)C2C1=O)OCCc1ccc2ccccc2c1 (stereo not drawn) [(6)]	210 h				549 nm	0.72%	57 h	
CNC(=O)CCC(=O)CCN1C(=O)C2=C(C3CC3SC)c3ccn(C)c3C3(C4CCC3(C)CC4)C2C1=O (stereo not drawn) [(15)]					613 nm	0.69%	65 h	T1/2 of fulgide or fulgimide compound ([4]; with chromene 5 (0.04 part)): 160 h; Color tone in T0 ([5]; with chromene 5 (0.04 part)): green; Color tone in T1/2 ([5]; with chromene 5 (0.04 part)): light gray
NC1CC1C1=C2C(=O)N(COC(=O)Cc3cccc4ccccc34)C(=O)C2C2(c3c1ccn3-c1ccccc1)C1(O)CCC2(O)CC1 (stereo not drawn) [(21)]					613 nm	0.78%	71 h	T1/2 of fulgide or fulgimide compound ([4]; with chromene 2 (0.03 part)): 172 h; Color tone in T0 ([5]; with chromene 2 (0.03 part)): green; Color tone in T1/2 ([5]; with chromene 2 (0.03 part)): green
CCOC(=O)OCN1C(=O)C2=C(C3C(c4ccccc4)C3c3ccccc3)c3cc(-c4ccc(OC)cc4)sc3C3(C4CCCC3CCC4)C2C1=O (stereo not drawn) [(31)]		616 nm	0.69	86 h	624 nm	0.77%	81 h	
O=C1C2=C(C3CC3)c3sc4c(c3C3(C5CCCC3CCC5)C2C(=O)N1CCc1cccc2ccccc12)CCCC4 (stereo not drawn) [(33)]		525 nm	0.49	80 h	519 nm	0.56%	7.8 h	
COC(=O)C(C)N1C(=O)C2=C(C3CC3)c3cc(-c4cccc(OC)c4)sc3C3(C4CC5CC(Cl)(C4)CC3(Cl)C5)C2C1=O (stereo not drawn) [(35)]		580 nm	0.67	90 h	574 nm	0.73%	85 h	
Cc1cc2c(n1C)C1(C3CC4CC(F)(C3)CC1(F)C4)C1C(=O)N(C3CCC([N+](=O)[O-])CC3)C(=O)C1=C2C1CC1 (stereo not drawn) [(40)]	280 h	535 nm	0.70	74 h	532 nm	0.77%	71 h	
CCOC(=O)OCN1C(=O)C2=C(C3CC3c3ccccc3)c3cc(OCC)sc3C3(C4CC5CC(C)(C4)CC3(C)C5)C2C1=O (stereo not drawn) [(41)]	263 h				557 nm	0.82%	65 h	
CCn1c2c(c3ccccc31)C(C1CC1C(=O)O)=C1C(=O)N(CC(=O)OCCC#N)C(=O)C1C21C2CC3CC(O)(C2)CC1(O)C3 (stereo not drawn) [(44)]					576 nm	0.75%	62 h	T1/2 of fulgide or fulgimide compound ([4]; with chromene 3 (0.08 part)): 154 h; Color tone in T0 ([5]; with chromene 3 (0.08 part)): gray; Color tone in T1/2 ([5]; with chromene 3 (0.08 part)): gray
O=C(CN1C(=O)C2=C(C3CC3)c3c(sc4c3CCCC4)C3(C4CC5CC(C4)CC3C5)C2C1=O)NCCCl (stereo not drawn) [(46)]						0.71%	59 h	T1/2 of fulgide or fulgimide compound ([4]; with chromene 5 (0.07 part)): 148 h; Color tone in T0 ([5]; with chromene 5 (0.07 part)): amber; Color tone in T1/2 ([5]; with chromene 5 (0.07 part)): amber
O=C1OC(=O)C2C1=C(C1CC1)c1c(sc3ccccc13)C21C2CCC1CC2 (stereo not drawn) [(49)]	235 h				564 nm	1.15%	58 h	
COc1cc2c(c(OC)c1OC)C1(C3CCC1CC3)C1C(=O)OC(=O)C1=C2C1CC1 (stereo not drawn) [(51)]		562 nm	0.82	55 h	561 nm	0.92%	52 h	
CCn1c2c(c3ccccc31)C(C1CC1)=C1C(=O)OC(=O)C1C21C2CC3CC1CC(C)(C3)C2 (stereo not drawn) [(57)]	220 h				559 nm	1.21%	55 h	

The next lines start with results.

T1/2 [1, 8]	λmax [2]	Initial color density [2]	T1/2 [2]	λmax [3]	Initial color density [3]	T1/2 [3]	SMILES	also measured
244 h				532 nm	0.69%	61 h	CCC(C(=O)OCCc1ccc2ccccc2c1)N1C(=O)C2=C(C3CC3)c3ccsc3C3(C4CC5CC(C4)CC3C5)C2C1=O (stereo not drawn) [(5)]	
220 h				529 nm	1.21%	54 h	O=C1OC(=O)C2C1=C(C1CC1)c1cc(Br)sc1C21C2CC3CC(C2)CC1C3 (stereo not drawn) [(7), 2-bromo-4-cyclopropyl-6,7-dihydridospirobenzo[5,6-b]thiophenedicarboxyanhydride-7,2'-tricyclo[3.1.1^3.7]decane]	
	553 nm	0.51	71 h	548 nm	0.57%	68 h	CC(=O)OCN1C(=O)C2=C(C3CC3)c3sc(Br)cc3C3(C4CC5CC(C4)CC3C5)C2C1=O (stereo not drawn) [(42)]	
200 h				518 nm	0.90%	48 h	O=C1OC(=O)C2C1=C(C1CC1C(F)(F)F)c1sc(Br)cc1C21C2CCC1CC2 (stereo not drawn) [(50)]	
	530 nm	1.08	60 h	525 nm	1.18%	56 h	Cc1cc2c(n1C)C1(C3CCCC1CCC3)C1C(=O)OC(=O)C1=C2C1CC1 (stereo not drawn) [(53)]	
	550 nm	1.13	61 h	545 nm	1.25%	58 h	CCOc1cc2c(s1)C1(C3CCCC1CCC3)C1C(=O)OC(=O)C1=C2C1CC1 (stereo not drawn) [(55)]	
228 h				524 nm	1.21%	57 h	O=C1OC(=O)C2C1=C(C1CC1)c1cc([N+](=O)[O-])sc1C21C2CC3CC(C2)CC1C3 (stereo not drawn) [(59)]	
